Measurements as given in patent publication US20070244103A1, “Novel Compounds Having an Anti-Bacterial Activity” (Morphochem Aktiengesellschaft Fur Kombinatorische Chemie, priority 2004, published 2007).

Assay: MIC of the examples against various organisms
Assay type: cell-based
Conditions: against at least two of the above organisms (12-strain panel)
Procedure: The MIC (μg/ml) of the examples against various organisms was determined: A. baumannii ATCC19606, E. cloacae ATCC23355, E. coli ATCC25922, K. pneumoniae ATCC27736, P. mirabilis ATCC29906, P. aeruginosa ATCC27853, S. maltophilia ATCC13637, S. aureus ATCC43300, S. epidermidis ATCC14990, S. haemolyticus ATCC29970, E. faecalis ATCC29212 and E. faecium ATC19434.

Row | SMILES | MIC [µg/mL]
1 | COc1ccc2ncc(Cl)c(C(O)CN3C4CCC3CC(NCc3ccc5c(c3)OCO5)C4)c2c1 (single isomer, unassigned) [Example 61, 2-{3-[(Benzo[1,3]dioxol-5-ylmethyl)-amino]-8-aza-bicyclo[3.2.1]oct-8-yl}-1-(3-chloro-6-methoxy-quinolin-4-yl)-ethanol] | ≤ 2
2 | COc1ccc2ncc(Cl)c(C(O)CN3C4CCC3CC(NCc3ccc5c(c3)OCCO5)C4)c2c1 (single isomer, unassigned) [Example 62, 1-(3-Chloro-6-methoxy-quinolin-4-yl)-2-{3-[(2,3-dihydro-benzo[1,4]dioxin-6-ylmethyl)-amino]-8-aza-bicyclo[3.2.1]oct-8-yl}-ethanol] | ≤ 2
3 | COc1ccc2ncc(Cl)c(C(O)CN3C4CCC3CC(NC/C=C/c3ccccc3)C4)c2c1 (single isomer, unassigned) [Example 63, 1-(3-Chloro-6-methoxy-quinolin-4-yl)-2-[3-((E)-3-phenyl-allylamino)-8-aza-bicyclo[3.2.1]oct-8-yl]-ethanol] | ≤ 2
4 | COc1ccc2ncc(Cl)c(C(O)CN3CCCC(CNCc4ccc5c(c4)OCO5)C3)c2c1 (single isomer, unassigned) [Example 65, 2-(3-{[(Benzo[1,3]dioxol-5-ylmethyl)-amino]-methyl}-piperidin-1-yl)-1-(3-chloro-6-methoxy-quinolin-4-yl)-ethanol] | ≤ 2
5 | COc1ccc2ncc(Cl)c(C(O)CN3CCCC(CNCc4ccc5c(c4)OCCO5)C3)c2c1 (single isomer, unassigned) [Example 66, 1-(3-Chloro-6-methoxy-quinolin-4-yl)-2-(3-{[(2,3-dihydro-benzo[1,4]dioxin-6-ylmethyl)-amino]-methyl}-piperidin-1-yl)-ethanol] | ≤ 2
6 | COc1ccc2ncc(Cl)c(C(O)CN3CCCC(CNCc4ccc5c(c4)NC(=O)CS5)C3)c2c1 (single isomer, unassigned) [Example 68, 6-[({1-[2-(3-Chloro-6-methoxy-quinolin-4-yl)-2-hydroxy-ethyl]-piperidin-3-ylmethyl}-amino)-methyl]-4H-benzo[1,4]thiazin-3-one] | ≤ 2
7 | COc1ccc2ncc(Cl)c(C(O)CN3CCCC(CNCc4ccc5nsnc5c4)C3)c2c1 (single isomer, unassigned) [Example 70, 2-(3-{[(Benzo[1,2,5]thiadiazol-5-ylmethyl)-amino]-methyl}-piperidin-1-yl)-1-(3-chloro-6-methoxy-quinolin-4-yl)-ethanol] | ≤ 2
8 | COc1ccc2ncc(Cl)c(C(O)CN3CCOC(CNCc4ccc5c(c4)NC(=O)CO5)C3)c2c1 (single isomer, unassigned) [Example 71, 6-[({4-[2-(3-Chloro-6-methoxy-quinolin-4-yl)-2-hydroxy-ethyl]-morpholin-2-ylmethyl}-amino)-methyl]-4H-benzo[1,4]oxazin-3-one] | ≤ 2
9 | COc1ccc2ncc(Cl)c(C(O)CN3CCOC(CNCc4ccc5c(c4)OCO5)C3)c2c1 (single isomer, unassigned) [Example 72, 2-(2-{[(Benzo[1,3]dioxol-5-ylmethyl)-amino]-methyl}-morpholin-4-yl)-1-(3-chloro-6-methoxy-quinolin-4-yl)-ethanol] | ≤ 2
10 | COc1ccc2ncc(Cl)c(C(O)CN3CCOC(CNCc4ccc5c(c4)OCCO5)C3)c2c1 (single isomer, unassigned) [Example 73, 1-(3-Chloro-6-methoxy-quinolin-4-yl)-2-(2-{[(2,3-dihydro-benzo[1,4]dioxin-6-ylmethyl)-amino]-methyl}-morpholin-4-yl)-ethanol] | ≤ 2
11 | COc1ccc2ncc(Cl)c(C(O)CN3CCOC(CNCc4ccc5nsnc5c4)C3)c2c1 (single isomer, unassigned) [Example 74, 2-(2-{[(Benzo[1,2,5]thiadiazol-5-ylmethyl)-amino]-methyl}-morpholin-4-yl)-1-(3-chloro-6-methoxy-quinolin-4-yl)-ethanol] | ≤ 2
12 | COc1ccc2ncc(Cl)c(C(O)CN3CCOC(CNC/C=C/c4ccccc4)C3)c2c1 (single isomer, unassigned) [Example 77, 1-(3-Chloro-6-methoxy-quinolin-4-yl)-2-{2-[((E)-3-phenyl-allylamino)-methyl]-morpholin-4-yl}-ethanol] | ≤ 2
13 | COc1ccc2nccc(NC(=O)C3CCCC(CNCc4ccc5c(c4)NC(=O)CO5)C3)c2n1 (stereo not shown) [Example 15, 3-{[(3-Oxo-3,4-dihydro-2H-benzo[1,4]oxazin-6-ylmethyl)-amino]-methyl}-cyclohexanecarboxylic acid (6-methoxy-[1,5]-naphthyridin-4-yl)-amide] | ≤ 2
14 | COc1ccc2nccc(NC(=O)C3CCCC(CNC/C=C/c4ccccc4)C3)c2n1 (stereo not shown) [Example 22, 3-[((E)-3-Phenyl-allylamino)-methyl]-cyclohexanecarboxylic acid (6-methoxy-[1,5]-naphthyridin-4-yl)-amide] | ≤ 2
15 | COc1ccc2ncc(Cl)c(C(O)CN3C4CCC3CC(NCc3ccc5c(c3)OCCO5)C4)c2n1 (stereo not shown) [Example 25, 1-(3-Chloro-6-methoxy-[1,5]-naphthyridin-4-yl)-2-{3-[(2,3-dihydro-benzo[1,4]dioxin-6-ylmethyl)-amino]-8-aza-bicyclo[3.2.1]oct-8-yl}-ethanol] | ≤ 2
16 | COc1ccc2ncc(Cl)c(C(O)CN3C4CCC3CC(NCc3ccc5nsnc5c3)C4)c2n1 (stereo not shown) [Example 26, 2-{3-[(Benzo[1,2,5]thiadiazol-5-ylmethyl)-amino]-8-aza-bicyclo[3.2.1]oct-8-yl}-1-(3-chloro-6-methoxy-[1,5]-naphthyridin-4-yl)-ethanol] | ≤ 2
17 | COc1ccc2ncc(Cl)c(C(O)CN3C4CCC3CC(NCc3ccc5c(c3)NC(=O)CO5)C4)c2n1 (stereo not shown) [Example 27, 6-({8-[2-(3-Chloro-6-methoxy-[1,5]-naphthyridin-4-yl)-2-hydroxy-ethyl]-8-aza-bicyclo[3.2.1]oct-3-ylamino}-methyl)-4H-benzo[1,4]oxazin-3-one] | ≤ 2
18 | COc1ccc2ncc(Cl)c(C(O)CN3C4CCC3CC(NCc3cc5c(cc3F)SCC(=O)N5)C4)c2n1 (stereo not shown) [Example 28, 6-({8-[2-(3-Chloro-6-methoxy-[1,5]-naphthyridin-4-yl)-2-hydroxy-ethyl]-8-aza-bicyclo[3.2.1]oct-3-ylamino}-methyl)-7-fluoro-4H-benzo[1,4]thiazin-3-one] | ≤ 2
19 | COc1ccc2ncc(Cl)c(C(O)CN3C4CCC3CC(NCc3ccc5c(c3)NC(=O)CS5)C4)c2n1 (stereo not shown) [Example 29, 6-({8-[2-(3-Chloro-6-methoxy-[1,5]-naphthyridin-4-yl)-2-hydroxy-ethyl]-8-aza-bicyclo[3.2.1]oct-3-ylamino}-methyl)-4H-benzo[1,4]thiazin-3-one] | ≤ 2

Further lines, results first:

Row | MIC [µg/mL] | SMILES
20 | ≤ 2 | COc1ccc2ncc(Cl)c(C(O)CN3CCCC(CNCc4cc5c(cc4F)SCC(=O)N5)C3)c2c1 (single isomer, unassigned) [Example 67, 6-[({1-[2-(3-Chloro-6-methoxy-quinolin-4-yl)-2-hydroxy-ethyl]-piperidin-3-ylmethyl}-amino)-methyl]-7-fluoro-4H-benzo[1,4]thiazin-3-one]
21 | ≤ 2 | COc1ccc2ncc(Cl)c(C(O)CN3CCCC(CNC/C=C/c4ccccc4)C3)c2c1 (single isomer, unassigned) [Example 69, 1-(3-Chloro-6-methoxy-quinolin-4-yl)-2-{3-[((E)-3-phenyl-allylamino)-methyl]-piperidin-1-yl}-ethanol]
22 | ≤ 2 | COc1ccc2ncc(Cl)c(C(O)CN3CCOC(CNCc4cc5c(cc4F)SCC(=O)N5)C3)c2c1 (single isomer, unassigned) [Example 75, 6-[({4-[2-(3-Chloro-6-methoxy-quinolin-4-yl)-2-hydroxy-ethyl]-morpholin-2-ylmethyl}-amino)-methyl]-7-fluoro-4H-benzo[1,4]thiazin-3-one]
23 | ≤ 2 | COc1ccc2ncc(Cl)c(C(O)CN3CCOC(CNCc4ccc5c(c4)NC(=O)CS5)C3)c2c1 (single isomer, unassigned) [Example 76, 6-[({4-[2-(3-Chloro-6-methoxy-quinolin-4-yl)-2-hydroxy-ethyl]-morpholin-2-ylmethyl}-amino)-methyl]-4H-benzo[1,4]thiazin-3-one]
24 | ≤ 2 | COc1ccc2nccc(NC(=O)C3CCCC(CNCc4ccc5c(c4)NC(=O)CS5)C3)c2n1 (stereo not shown) [Example 16, 3-{[(3-Oxo-3,4-dihydro-2H-benzo[1,4]thiazin-6-ylmethyl)-amino]-methyl}-cyclohexanecarboxylic acid (6-methoxy-[1,5]-naphthyridin-4-yl)-amide]
25 | ≤ 2 | COc1ccc2nccc(NC(=O)C3CCCC(CNCc4ccc5c(n4)NC(=O)CS5)C3)c2n1 (stereo not shown) [Example 17, 3-{[(3-Oxo-3,4-dihydro-2H-pyrido[3,2-b][1,4]thiazin-6-ylmethyl)-amino]-methyl}-cyclohexanecarboxylic acid (6-methoxy-[1,5]-naphthyridin-4-yl)-amide]
26 | ≤ 2 | COc1ccc2nccc(NC(=O)C3CCCC(CNCc4ccc5c(c4)OCCO5)C3)c2n1 (stereo not shown) [Example 19, 3-{[(2,3-Dihydro-benzo[1,4]dioxin-6-ylmethyl)-amino]-methyl}-cyclohexanecarboxylic acid (6-methoxy-[1,5]-naphthyridin-4-yl)-amide]
27 | ≤ 2 | COc1ccc2nccc(NC(=O)C3CCCC(CNCc4ccc5nsnc5c4)C3)c2n1 (stereo not shown) [Example 20, 3-{[(Benzo[1,2,5]thiadiazol-5-ylmethyl)-amino]-methyl}-cyclohexanecarboxylic acid (6-methoxy-[1,5]-naphthyridin-4-yl)-amide]
28 | ≤ 2 | COc1ccc2nccc(NC(=O)C3CCCC(CNCc4cc5c(cc4F)SCC(=O)N5)C3)c2n1 (stereo not shown) [Example 24, 3-{[(7-Fluoro-3-oxo-3,4-dihydro-2H-benzo[1,4]thiazin-6-ylmethyl)-amino]-methyl}-cyclohexanecarboxylic acid (6-methoxy-[1,5]-naphthyridin-4-yl)-amide]
